These results are taken from paper PMC12775434, “Ultra-large virtual screening unveils potent agonists of the neuromodulatory orphan receptor GPR139” (Nature Communications, 2025).

In brackets after ≈: the same amount, converted by molar mass.

A short description of one series: Kinetic solubility. It counts as physicochemical. The conditions noted are these: aqueous buffer, kinetic from dmso stock; 100 mM potassium phosphate buffer, 37 °C. Here is the method: Test compound was added to 100 mM potassium phosphate buffer and incubated at 37 °C for at least 20 h in a heater-shaker. After incubation, the samples were centrifuged at 3000 × g at 37 °C for 30 min to pellet insoluble material and an aliquot of the supernatant was taken for analysis. After dilution of the sample, the concentration of dissolved compound was quantified by liquid chromatography coupled to triple quadrupole mass spectrometry (LC-MS/MS).

Series [1] is described as follows: Metabolic stability in the presence of mouse liver microsomes. Type of series: in vitro ADME. The conditions noted are these: pH 7.4, read-out: intrinsic clearance, CLint. The protocol: Metabolic stability was determined in 0.5 mg/ml mouse liver microsomes at a compound concentration of 1 μM in 100 mM KPO4 buffer, pH 7.4, in a total incubation volume of 500 μl. The reaction was initiated by addition of 1 mM NADPH. At various incubation times, i.e., at 0, 5, 10, 20, 40, and 60 min, a sample was withdrawn from the incubation, and the reaction was terminated by addition of cold acetonitrile with warfarin as an internal standard. The amount of parent compound remaining was analyzed by LC-MS/MS[70].
(Liver microsomes are vesicles of endoplasmic reticulum, rich in cytochrome P450 enzymes.)

The target in another series is T1, GPR139 (Homo sapiens, UniProt Q6DWJ6).
T1 sequence (Q6DWJ6 1-353): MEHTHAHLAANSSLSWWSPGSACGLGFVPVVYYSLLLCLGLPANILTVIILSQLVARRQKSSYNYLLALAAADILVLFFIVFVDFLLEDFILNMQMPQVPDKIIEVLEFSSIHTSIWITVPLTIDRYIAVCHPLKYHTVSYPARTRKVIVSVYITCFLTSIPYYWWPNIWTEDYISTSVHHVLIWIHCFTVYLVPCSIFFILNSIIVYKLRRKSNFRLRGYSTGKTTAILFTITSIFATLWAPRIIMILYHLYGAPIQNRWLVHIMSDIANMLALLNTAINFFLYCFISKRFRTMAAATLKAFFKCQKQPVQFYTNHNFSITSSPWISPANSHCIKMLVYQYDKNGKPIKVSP
Put plainly: Signaling pathway panel at GPR139 (Gi2, Gi3, GoA, Gq, G12, Ca2+, arrestin-3), HEK293A. Type of series: cell-based. Also noted: expressed in transfected cells; host or cells: HEK293A (transient, Lipofectamine 2000). The note with it: for fold more potent than the R-enantiomer: across individual signaling pathways. The protocol: We evaluated the signaling pathways activated by the potent agonist 1.1 and JNJ-63533054 compounds through GPR139. […] As all our screens of analogs were performed with racemic mixtures, we synthesized compound 1.1 as pure S- and R-enantiomer (1.1(S) and 1.1(R), respectively) along with JNJ-63533054 (JNJ(S)) and its R-enantiomer (JNJ(R)). Detailed synthetic procedures are described in the Supplementary Methods. We then characterized these four compounds in assays measuring the activation of Gi2, Gi3, GoA, Gq, and G12 proteins, intracellular calcium mobilization, and arrestin-3 recruitment. G protein activation was measured using a BRET-based Gα-specific G protein dissociation assay[57] and arrestin-3 recruitment was measured with an enhanced bystander BRET assay[58] (Fig. 5a).
HEK293A cells were reverse-transfected with human GPR139 for Ca^2+ mobilization experiments with transiently expressed GPR139. The construct has been generated and described previously by Nøhr et al.. DNA and Lipofectamine 2000 Transfection Reagent (ThermoFisher #11668019) were separately diluted in Opti-MEM I Reduced Serum Medium (ThermoFisher #31985070). 10 ng GPR139 DNA and 250 nL Lipofectamine were used for each well. The dilutions were incubated at room temperature for 5 min. Then, DNA and Lipofectamine dilutions were combined in 1:1 volumetric ratio and incubated at room temperature for 20 min to obtain the transfection solutions. 10 µL transfection solution and 20,000 cells in 100 µL growth medium were distributed in each well of black clear bottom tissue culture treated 96-well plates that were previously coated with poly-D-lysine (Sigma-Aldrich #P0899). Cells were grown for approximately 48 h. A calcium mobilization assay was performed as described.
The G protein dissociation assay developed by the lab of Kirill A. Martemyanov was used to measure the coupling of multiple G proteins by GPR139[57]. The assay was performed as described previously with minor modifications. […] Simultaneous dual emission was measured at 535 nm and 475 nm on LUMIstar Omega Microplate Reader (BMG Labtech) at room temperature. […]

The kinetic solubility is solubility judged after dilution from a stock solution rather than from solid. Broadly, the EC50 is the concentration at which the effect is half-maximal. `Cc1cscc1-c1nc(CC(=O)N[C@@H](C)c2ccccc2)no1` [1.1(S)]: the kinetic solubility in the series “Kinetic solubility” was 13 µM (≈ 4.26 µg/mL). The microsomal CLint at 1 μM in series [1] was determined as 1370 µL/min/mg. Further, at GPR139, the “fold more potent than the R-enantiomer” value is 13- to 63 fold. For the same compound, the EC50 on GPR139 (range over pathways, read-out: EC50 for stimulating the individual signaling pathways at GPR139) was in the range of 13 to 200 nM.

As for `CC(NC(=O)CNC(=O)c1cccc(Cl)c1)c1ccccc1` (stereo not shown) [JNJ-63533054, reference compound], the “fold more potent than the R-enantiomer” value on GPR139 is recorded as 40- to 158 fold.

The compound `Cc1nocc1-c1nc(CC(=O)NC(C)c2ccccc2)no1` (stereo not shown) [Compound 1.5, CC(C1=CC=CC=C1)NC(CC2=NOC(C3=CON=C3C)=N2)=O] returned a solubility (kinetic) in “Kinetic solubility” of 24 µM (≈ 7.5 µg/mL). Further, in series [1], the microsomal CLint at 1 μM amounted to 46 µL/min/mg.
